Assay results from ChEMBL document CHEMBL1201862, “PubChem BioAssay data set” (2004).
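48-hour exposure; five concentrations; linearly interpolated endpoints. At the GI50, growth is halved.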 Activity calls are given as the source filed them. Cut-off read from the data, not from the text of the source: active = GI50 up to about 1.1 µM and inactive = higher.

What was measured:
Assay in all cases: NCI-60 cell line screen, 48 h
[1] = system: ACHN
[2] = system: RPMI-8226
[3] = system: SNB-75
[4] = system: MDA-MB-435
[5] = system: BT-549
[6] = system: SF-295
[7] = system: HOP-62
[8] = system: HCT-116
[9] = system: SK-MEL-5
[10] = system: MDA-N
[11] = system: SK-MEL-28
[12] = system: OVCAR-4
[13] = system: K562
[14] = system: U-251
[15] = system: UACC-62
[16] = system: IGROV-1
[17] = system: Hs-578T
[18] = system: MCF7
[19] = system: SF-268
[20] = system: SK-OV-3
[21] = system: OVCAR-3
[22] = system: HOP-92
[23] = system: SK-MEL-2
[24] = system: UACC-257
[25] = system: NCI-H460
[26] = system: NCI/ADR-RES
[27] = system: A549
[28] = system: SF-539
[29] = system: HL-60
[30] = system: CCRF-CEM
[31] = system: NCI-H522
[32] = system: OVCAR-8
[33] = system: NCI-H23
[34] = system: HT-29
[35] = system: Malme-3M
[36] = system: SNB-19
[37] = system: KM12
[38] = system: SW-620
[39] = system: CAKI-1
[40] = system: LOX IMVI
[41] = system: SR
[42] = system: PC-3
[43] = system: OVCAR-5
[44] = system: M14
[45] = system: 786-0
[46] = system: UO-31
[47] = system: TK-10
[48] = system: T47D
[49] = system: SN12C
[50] = system: RXF 393
[51] = system: NCI-H226
[52] = system: HCT-15
[53] = system: A498
[54] = system: MDA-MB-231
[55] = system: EKVX
[56] = system: COLO 205
[57] = system: MOLT-4
[58] = system: DU-145
[59] = system: HCC 2998

Compound: N#Cc1ccc(OC(=O)c2ccc(NC(=N)N)cc2)cc1.c1ccncc1
- GI50 [1]: > 100 µM (inactive)
- GI50 [2]: 40.8 µM (inactive)
- GI50 [3]: 43.9 µM (inactive)
- GI50 [4]: 67.8 µM (inactive)
- GI50 [5]: 88.7 µM (inactive)
- GI50 [6]: > 100 µM (inactive)
- GI50 [7]: > 100 µM (inactive)
- GI50 [8]: 59.3 µM (inactive)
- GI50 [9]: > 100 µM (inactive)
- GI50 [10]: 64.3 µM (inactive)
- GI50 [11]: > 100 µM (inactive)
- GI50 [12]: > 100 µM (inactive)
- GI50 [13]: 42 µM (inactive)
- GI50 [14]: 61.2 µM (inactive)
- GI50 [15]: > 100 µM (inactive)
- GI50 [16]: > 100 µM (inactive)
- GI50 [17]: > 100 µM (inactive)
- GI50 [18]: 39.9 µM (inactive)
- GI50 [19]: 51.1 µM (inactive)
- GI50 [20]: > 100 µM (inactive)
- GI50 [21]: 30.1 µM (inactive)
- GI50 [22]: 93.5 µM (inactive)
- GI50 [23]: > 100 µM (inactive)
- GI50 [24]: > 100 µM (inactive)
- GI50 [25]: > 100 µM (inactive)
- GI50 [26]: > 100 µM (inactive)
- GI50 [27]: > 100 µM (inactive)
- GI50 [28]: 73.6 µM (inactive)
- GI50 [29]: 60.1 µM (inactive)
- GI50 [30]: 22.2 µM (inactive)
- GI50 [31]: 30 µM (inactive)
- GI50 [32]: > 100 µM (inactive)
- GI50 [33]: > 100 µM (inactive)
- GI50 [34]: 53.7 µM (inactive)
- GI50 [35]: > 100 µM (inactive)
- GI50 [36]: 56.2 µM (inactive)
- GI50 [37]: 57 µM (inactive)
- GI50 [38]: 35.5 µM (inactive)
- GI50 [39]: 80 µM (inactive)
- GI50 [40]: 80.7 µM (inactive)
- GI50 [41]: 51.9 µM (inactive)
- GI50 [42]: > 100 µM (inactive)
- GI50 [43]: > 100 µM (inactive)
- GI50 [44]: > 100 µM (inactive)
- GI50 [45]: 66.1 µM (inactive)
- GI50 [46]: > 100 µM (inactive)
- GI50 [47]: > 100 µM (inactive)
- GI50 [48]: 42.5 µM (inactive)
- GI50 [49]: 63.2 µM (inactive)
- GI50 [50]: > 100 µM (inactive)
- GI50 [51]: 50 µM (inactive)
- GI50 [52]: 46.9 µM
- GI50 [53]: > 100 µM (inactive)
- GI50 [54]: > 100 µM (inactive)
- GI50 [55]: > 100 µM (inactive)
- GI50 [56]: 39.1 µM (inactive)
- GI50 [57]: 38.5 µM (inactive)
- GI50 [58]: > 100 µM (inactive)

Compound: CC(C)C[C@H](NC(=O)[C@H](CCc1ccccc1)NC(=O)c1ccc2ccccc2n1)B(O)O
- GI50 [1]: < 0.01 µM (active)
- GI50 [2]: < 0.01 µM (active)
- GI50 [3]: 0.0302 µM (active)
- GI50 [4]: < 0.01 µM (active)
- GI50 [5]: < 0.01 µM (active)
- GI50 [6]: 0.053 µM (active)
- GI50 [7]: 0.176 µM (active)
- GI50 [8]: < 0.0122 µM (active)
- GI50 [9]: < 0.0136 µM (active)
- GI50 [10]: < 0.01 µM (active)
- GI50 [59]: 0.0292 µM (active)
- GI50 [11]: < 0.01 µM (active)
- GI50 [12]: 0.185 µM (active)
- GI50 [13]: 0.0439 µM (active)
- GI50 [14]: 0.178 µM (active)
- GI50 [15]: 0.0973 µM (active)
- GI50 [16]: 0.0705 µM (active)
- GI50 [17]: 0.0245 µM (active)
- GI50 [18]: < 0.01 µM (active)
- GI50 [19]: 0.0571 µM (active)
- GI50 [21]: < 0.01 µM (active)
- GI50 [22]: 0.0329 µM (active)
- GI50 [23]: < 0.01 µM (active)
- GI50 [24]: < 0.0156 µM (active)
- GI50 [25]: 0.394 µM (active)
- GI50 [26]: 0.706 µM (active)
- GI50 [27]: 0.233 µM (active)
- GI50 [28]: < 0.01 µM (active)
- GI50 [29]: < 0.01 µM (active)
- GI50 [30]: < 0.01 µM (active)
- GI50 [31]: < 0.0128 µM (active)
- GI50 [32]: 0.163 µM (active)
- GI50 [33]: 0.0367 µM (active)
- GI50 [34]: < 0.0113 µM (active)
- GI50 [35]: < 0.01 µM (active)
- GI50 [37]: 0.0644 µM (active)
- GI50 [38]: < 0.01 µM (active)
- GI50 [39]: < 0.0194 µM (active)
- GI50 [40]: 0.0144 µM (active)
- GI50 [41]: < 0.0158 µM (active)
- GI50 [42]: 0.0731 µM (active)
- GI50 [43]: < 0.0268 µM (active)
- GI50 [44]: < 0.0109 µM (active)
- GI50 [45]: < 0.0225 µM (active)
- GI50 [46]: 0.0845 µM (active)
- GI50 [47]: < 0.01 µM (active)
- GI50 [48]: < 0.01 µM (active)
- GI50 [49]: < 0.01 µM (active)
- GI50 [50]: < 0.01 µM (active)
- GI50 [51]: < 0.01 µM (active)
- GI50 [52]: 0.0883 µM
- GI50 [53]: 0.0471 µM (active)
- GI50 [54]: 0.134 µM (active)
- GI50 [55]: 0.264 µM (active)
- GI50 [56]: 0.043 µM (active)
- GI50 [57]: < 0.01 µM (active)
- GI50 [58]: 0.0752 µM (active)
